Measured values taken from patent US8415307B1, “Antibiotic compositions for the treatment of gram negative infections” (priority 2010, dated 2013).
*1 amine or outer side, *2 acyl side, *3 side chain or, on linkers, in order; H or OH if unused. Where a SMILES comes first, the peptide text is derived from it. Bridges are numbered along the chain shown (N, C = ends). [ ]: non-standard residue; d: D form. The star is where a group is joined. ξ: configuration not given here. Thr(3ξ) = CC(O)[C@H](N)C(=O)O; NH(2-ClPh) = Clc1ccccc1N*; X1 = CC[C@H](C)CCCCC(=O)*; dDab = NCC[C@@H](N)C(=O)O; Dab = NCC[C@H](N)C(=O)O; CO = O=C([*:1])[*:2]; ξDab = NCCC(N)C(=O)O

Tests used:
A. baumannii 1570 = test: MIC against the primary screening panel (broth microdilution); assay type: cell-based; parameters: key: A: a MIC value measurement that is the same as that observed for polymyxin B; a MIC value measured that is lower than the comparable value observed for polymxin B; a MIC value measured that is higher than the comparable value observed for polymyxin B; conditions: class relative to polymyxin B
Procedure: (§1) Antibacterial potency can be assessed by broth microdilution according to CLSI guidelines, plates can be incubated at 37° C., and aeration (rotation at 200 rpm) can be employed. In some assays, surfactant (Survanta, Abbott Laboratories) can be added to give a final concentration of 1, 10 and 40% in caMHB. Native polymyxin A, polymyxin B and the comparator compound of Formula II (polymyxin B decapeptide with an o-chlorophenyl urea tail) were included for comparison.

[1] = tested on: K. pneumoniae 1800 (PMX-resistant); test: as above; assay type: cell-based; parameters: key: A: a MIC value measurement that is the same as that observed for polymyxin B; a MIC value measured that is lower than the comparable value observed for polymxin B; a MIC value measured that is higher than the comparable value observed for polymyxin B; conditions: class relative to polymyxin B
Procedure: as §1

K. pneumoniae 933 = test: as above; assay type: cell-based; parameters: key: A: a MIC value measurement that is the same as that observed for polymyxin B; a MIC value measured that is lower than the comparable value observed for polymxin B; a MIC value measured that is higher than the comparable value observed for polymyxin B; conditions: class relative to polymyxin B
Procedure: as §1

P. aeruginosa 44 [2] = test: as above; assay type: cell-based; parameters: key: A: a MIC value measurement that is the same as that observed for polymyxin B; a MIC value measured that is lower than the comparable value observed for polymxin B; a MIC value measured that is higher than the comparable value observed for polymyxin B; conditions: class relative to polymyxin B
Procedure: as §1

A. baumannii = test: MIC50-90 against small panels (n = 35); assay type: cell-based; parameters: key: A: a MIC value measurement that is the same as that observed for polymyxin B; a MIC value measured that is lower than the comparable value observed for polymxin B; a MIC value measured that is higher than the comparable value observed for polymyxin B; conditions: small panel n = 35; class relative to polymyxin B
Source text: (§2) MIC's refer to the concentration of each antimicrobial agent required to inhibit the growth of a bacterial isolate, as well as the corresponding concentrations required to inhibit 50% and 90% of each group of microorganisms tested [MIC50 and MIC90, respectively, consistent with definitions in the “Instructions to Authors” for Antimicrobial Agents and Chemotherapy (Antimicrobial Agents and Chemotherapy, January 2010, p. 1-23, Vol. 54, No. 1, incorporated herein by reference)]. When only up to nine isolates of a species are tested, MIC's are reported as the MIC range of each antimicrobial agent tested. MIC values provided as numerical ranges for testing of a single bacterial strain indicate the range of MIC values obtained in repeated tests of the indicated bacteria strain.
as §1

E. coli [3] = test: MIC50-90 against small panels (n = 35); assay type: cell-based; parameters: key: A: a MIC value measurement that is the same as that observed for polymyxin B; a MIC value measured that is lower than the comparable value observed for polymxin B; a MIC value measured that is higher than the comparable value observed for polymyxin B; conditions: small panel n = 35; class relative to polymyxin B
Source text: as §2, §1

K. pneumoniae = test: MIC50-90 against small panels (n = 35); assay type: cell-based; parameters: key: A: a MIC value measurement that is the same as that observed for polymyxin B; a MIC value measured that is lower than the comparable value observed for polymxin B; a MIC value measured that is higher than the comparable value observed for polymyxin B; conditions: small panel n = 35; class relative to polymyxin B
Source text: as §2, §1

P. aeruginosa = test: MIC50-90 against small panels (n = 35); assay type: cell-based; parameters: key: A: a MIC value measurement that is the same as that observed for polymyxin B; a MIC value measured that is lower than the comparable value observed for polymxin B; a MIC value measured that is higher than the comparable value observed for polymyxin B; conditions: small panel n = 35; class relative to polymyxin B
Source text: as §2, §1

P. aeruginosa #44 = test: MICs for P. aeruginosa #44 in the presence of surfactant; assay type: cell-based; parameters: key: A: a MIC value measurement that is the same as that observed for polymyxin B; a MIC value measured that is lower than the comparable value observed for polymxin B; a MIC value measured that is higher than the comparable value observed for polymyxin B; conditions: class relative to polymyxin B; for MIC P. aeruginosa #44, 10% surfactant: 10% surfactant (Survanta) in caMHB; for MIC P. aeruginosa #44, 40% surfactant: 40% surfactant (Survanta) in caMHB
Procedure: as §1

P. aeru = test: MIC50 and MIC90, panel of Gram negative bacterial strains (CLSI broth microdilution); assay type: cell-based, P. Aeruginosa; parameters: key to P. aeru MIC50 / P. aeru MIC90: A: a measured MIC value equal to that of polymyxin B; a measured MIC value less than the corresponding MIC value measured for polymyxin B; a measured MIC value greater than the corresponding MIC value measured for polymyxin B; conditions: for P. aeru MIC50 / P. aeru MIC90: class relative to polymyxin B, some strains multi-drug resistant
Procedure: (§3) The potency and spectrum of Compound 5 was studied using a panel of Gram negative bacterial strains.
(§4) MIC testing can be performed according to Clinical and Laboratory Standards Institute (CLSI) M7-A7 (2006) broth microdilution methods. Unless otherwise indicated, MIC values are provided in units of micrograms per milliliter.
(§5) One day prior to testing, individual colonies were isolated by streaking onto rich, non-selective Tryptic Soy agar with 5% lysed sheeps blood (TSAB) with incubation at 35-37° C. for 18-24 hours.
(§6) Cultures were prepared by touching 3-5 colonies into 3 mL of cation-adjusted Mueller Hinton Broth (caMHB) in a 14-mL tube (caMHB was prepared and sterilized according to manufacturer's specifications).
(§7) OD600 of growing cultures was measured and adjusted to approximately 10^5 colony forming units per mL (CFU/mL) in caMHB for MIC inoculation (approximately OD600 0.001).
(§8) Diluted cultures were used to inoculate 50 μL per well in broth microdilution assays (final volume 100 μl per well; compounds were prepared in two-fold dilutions).
(§9) Plates were incubated 16-20 hours at 37° C., with shaking at 200 rpm.
(§10) OD600 was determined for all wells. Growth was defined as OD600>0.1. MICs were defined as the lowest concentration producing no visible turbidity (OD600<0.1).

E. coli [4] = test: as above; assay type: cell-based; parameters: key to E. coli MIC50 / E. coli MIC90: A: a measured MIC value equal to that of polymyxin B; a measured MIC value less than the corresponding MIC value measured for polymyxin B; a measured MIC value greater than the corresponding MIC value measured for polymyxin B; conditions: for E. coli MIC50 / E. coli MIC90: class relative to polymyxin B, some strains multi-drug resistant
Procedure: as §3, §4, §5, §6, §7, §8, §9, §10

K. pneu = test: as above; assay type: cell-based, K. pneumonia; parameters: key to K. pneu MIC50 / K. pneu MIC90: A: a measured MIC value equal to that of polymyxin B; a measured MIC value less than the corresponding MIC value measured for polymyxin B; a measured MIC value greater than the corresponding MIC value measured for polymyxin B; conditions: for K. pneu MIC50 / K. pneu MIC90: class relative to polymyxin B, some strains multi-drug resistant
Procedure: as §3, §4, §5, §6, §7, §8, §9, §10

A. baum = test: as above; assay type: cell-based, A. baumanni; parameters: key to A. baum MIC50 / A. baum MIC90: A: a measured MIC value equal to that of polymyxin B; a measured MIC value less than the corresponding MIC value measured for polymyxin B; a measured MIC value greater than the corresponding MIC value measured for polymyxin B; conditions: for A. baum MIC50 / A. baum MIC90: class relative to polymyxin B, some strains multi-drug resistant
Procedure: as §3, §4, §5, §6, §7, §8, §9, §10

P. aeruginosa 44 [5] = test: Neutropenic mouse lung infection model; assay type: in vivo; conditions: for Lungs cleared within one log10 of limit of detection: mouse lung model, 8 through 20 mg/kg dose levels
Procedure: Compound of Formula (Ia) was tested in a murine thigh model. For the thigh model, female CD-1 mice were rendered neutropenic by IP injection on days −4 and −1 with 150 and 100 mg/kg cyclophosphamide, respectively. On day 0 mice were infected with 1×10^7 colony-forming units (cfu) of A. baumannii 1570 in one thigh muscle, and then administered compound SC in a dose ranging from 2 to 12 mg/kg at 1 and 6 hours post-infection.
The mouse lung model was run in the same manner as the thigh infection model, except that mice were infected IN with 1×10^7 cfu of P. aeruginosa 44 on day 0. Doses administered in the lung study ranged from 8 to 20 mg/kg. The ED−3log10 was based on cfu determination from the lung tissue 24 hours post-infection.

[6] = Acute toxicity testing in rats; assay type: in vivo, Sprague-Dawley rat
Procedure: One female Sprague-Dawley rat was administered a 1 mg/kg dose of the test Compound 5. Clinical observations were taken immediately following the administration of compound and at 0.5, 1, 2 and 4 hours post-dose.

[7] = 1 mg/kg i.v., female Sprague-Dawley rat

Row | Compound | MIC A. baumannii 1570 (A. baumannii 1570) | MIC K. pneumoniae 1800 (PMX-resistant) [1] | MIC K. pneumoniae 933 (K. pneumoniae 933) | MIC P. aeruginosa 44 (P. aeruginosa 44 [2]) | A. baumannii MIC50 (A. baumannii) | A. baumannii MIC90 (A. baumannii) | E. coli MIC50 (E. coli [3]) | E. coli MIC90 (E. coli [3]) | K. pneumoniae MIC50 (K. pneumoniae) | K. pneumoniae MIC90 (K. pneumoniae) | P. aeruginosa MIC50 (P. aeruginosa) | P. aeruginosa MIC90 (P. aeruginosa) | MIC P. aeruginosa #44, 0% surfactant (P. aeruginosa #44) | MIC P. aeruginosa #44, 10% surfactant (P. aeruginosa #44) | MIC P. aeruginosa #44, 40% surfactant (P. aeruginosa #44) | E. coli MIC50 (E. coli [4]) | E. coli MIC90 (E. coli [4]) | K. pneu MIC50 (K. pneu) | K. pneu MIC90 (K. pneu) | A. baum MIC50 (A. baum) | other results
1 | CC(C)C[C@@H]1NC(=O)[C@@H](Cc2ccccc2)NC(=O)[C@H](CCN)NC(=O)C(NC(=O)[C@H](CCN)NC(=O)[C@@H](NC(=O)[C@H](CCN)NC(=O)Nc2ccccc2Cl)C(C)O)CCNC(=O)[C@H](C(C)O)NC(=O)[C@H](CCN)NC(=O)C(CCN)NC1=O (stereo partly shown) [Formula (II) comparator] ({NH(2-ClPh)-CO}-[Dab][Thr(3ξ)][Dab][ξDab][Dab][dF]L[ξDab][Dab][Thr(3ξ)]; lactam 4-C) | C | C | C | C | C | C | C | C | C | C | B | A | C | B | A | C | C | C | C | C | P. aeru MIC50 (P. aeru; listed as 2): B and A; P. aeru MIC90 (P. aeru; listed as 2): A and C; A. baum MIC90 (A. baum): C; Lungs cleared within one log10 of limit of detection (P. aeruginosa 44 [5]): not seen
2 | CC(C)C[C@H]1NC(=O)[C@H](CCN)NC(=O)[C@@H](NC(=O)[C@@H](CCN)NC(=O)[C@@H](NC(=O)[C@H](CCN)NC(=O)[C@H]2C[C@@H]2c2ccccc2)C(C)O)CCNC(=O)[C@H](C(C)O)NC(=O)[C@H](CCN)NC(=O)[C@H](CCN)NC(=O)[C@H](C(C)O)NC1=O (single isomer, unassigned) [Compound 5] | C | C | A | C | C | C | C | A | C | C | A | C | C | B | B | C | A | C | C | C | activity against P. Aeruginosa isolates (P. aeru): active; P. aeru MIC50 (P. aeru): A; P. aeru MIC90 (P. aeru): C; activity against E. coli isolates (E. coli [4]): active; activity against K. pneumonia isolates (K. pneu): active; activity against A. baumanni isolates (A. baum): active; A. baum MIC90 (A. baum): C; Lungs cleared within one log10 of limit of detection (P. aeruginosa 44 [5]): Lungs cleared within one log10 of limit of detection; ED−3log10 (P. aeruginosa 44 [5]; neutropenic mouse lung, P. aeruginosa 44, SC, BID×1d, cfu 24 hours post-infection, experiment with Formula (Ia)): 6.35 mg/kg; Acute (anaphylactoid) observations ([6]; 1 mg/kg i.v., 1 female Sprague-Dawley rat): anaphylactoid response was observed; Clinical signs by 0.5 hours [6, 7]: these signs diminished, but the rat remained hypoactive; Clinical signs by 1 hour [6, 7]: no clinical signs and appeared normal; Clinical signs immediately following the dose [6, 7]: flushed ears, abnormal gait, hypoactivity and squinty eyes
3 | CC[C@H](C)CCCCC(=O)N[C@@H](CCN)C(=O)N[C@H](C(=O)N[C@H](CCN)C(=O)N[C@H]1CCNC(=O)[C@H]([C@@H](C)O)NC(=O)[C@H](CCN)NC(=O)[C@H](CCN)NC(=O)[C@H]([C@@H](C)O)NC(=O)[C@@H](CC(C)C)NC(=O)[C@H](CCN)NC1=O)[C@@H](C)O [Native Polymyxin A, Polymyxin A] (X1-[Dab]T[dDab][Dab][Dab][dL]T[Dab][Dab]T; lactam 4-C) | C | C | B | A | A | A | B | A | C | C | A | C | C | B | B | B | A | C | C | A | P. aeru MIC50 (P. aeru): A; P. aeru MIC90 (P. aeru): C; A. baum MIC90 (A. baum): A; Lungs cleared within one log10 of limit of detection (P. aeruginosa 44 [5]): not observed; Clinical signs ([6]; IV dose of 1 mg/kg, similar experiment): no clinical signs were observed
